According to the CheMixHub ionic liquid set:
± gives the uncertainty stated by the source.

Assay: xn = mol fraction of the nth substance listed
Conditions: for electrical conductivity: frequency 0.001 MHz

O=C([O-])C1=NN(c2ccc(S(=O)(=O)[O-])cc2)C(=O)C1N=Nc1ccc(S(=O)(=O)[O-])cc1.[Na+].[Na+].[Na+] (centres undefined) + CCCC[N+](CCCC)(CCCC)Cc1ccccc1.[Cl-] + O
101.3 kPa
Conditions	electrical conductivity, 298.15 K [S/m]	electrical conductivity, 308.15 K [S/m]	electrical conductivity, 318.15 K [S/m]	viscosity, 298.15 K [mPa·s]	viscosity, 308.15 K [mPa·s]	viscosity, 318.15 K [mPa·s]
x1 = 0.0001802, x2 = 1.802e-05	0.11 ± 0.012	0.131 ± 0.014	0.158 ± 0.017	0.933 ± 0.045	0.799 ± 0.045	0.663 ± 0.045
x1 = 0.0001803, x2 = 5.405e-05	0.119 ± 0.012	0.142 ± 0.015	0.182 ± 0.019	0.951 ± 0.045	0.818 ± 0.045	0.68 ± 0.045
x1 = 0.0001804, x2 = 9.008e-05	0.151 ± 0.016	0.168 ± 0.017	0.196 ± 0.02	0.971 ± 0.045	0.836 ± 0.045	0.699 ± 0.045
x1 = 0.0004504, x2 = 1.801e-05	0.176 ± 0.018	0.226 ± 0.023	0.28 ± 0.029	0.956 ± 0.045	0.818 ± 0.045	0.68 ± 0.045
x1 = 0.0004507, x2 = 5.403e-05	0.201 ± 0.021	0.248 ± 0.025	0.328 ± 0.033	0.975 ± 0.045	0.839 ± 0.045	0.698 ± 0.045
x1 = 0.000451, x2 = 9.005e-05	0.263 ± 0.027	0.301 ± 0.031	0.353 ± 0.035	0.996 ± 0.045	0.858 ± 0.045	0.719 ± 0.045
x1 = 0.0007205, x2 = 1.801e-05	0.245 ± 0.025	0.299 ± 0.03	0.384 ± 0.039	0.975 ± 0.045	0.836 ± 0.045	0.695 ± 0.045
x1 = 0.0007209, x2 = 5.402e-05	0.269 ± 0.028	0.342 ± 0.035	0.452 ± 0.045	0.995 ± 0.045	0.858 ± 0.045	0.715 ± 0.045
x1 = 0.0007213, x2 = 9.003e-05	0.369 ± 0.038	0.419 ± 0.043	0.478 ± 0.048	1.019 ± 0.045	0.878 ± 0.045	0.738 ± 0.045
x1 = 0.0009904, x2 = 1.8e-05	0.319 ± 0.032	0.38 ± 0.038	0.493 ± 0.05	0.994 ± 0.045	0.853 ± 0.045	0.711 ± 0.045
x1 = 0.000991, x2 = 5.4e-05	0.353 ± 0.036	0.438 ± 0.044	0.577 ± 0.058	1.015 ± 0.045	0.877 ± 0.045	0.733 ± 0.045
x1 = 0.0009916, x2 = 9e-05	0.469 ± 0.049	0.524 ± 0.053	0.603 ± 0.06	1.039 ± 0.045	0.897 ± 0.045	0.756 ± 0.045
x1 = 0.00126, x2 = 1.8e-05	0.398 ± 0.04	0.476 ± 0.048	0.609 ± 0.062	1.011 ± 0.045	0.869 ± 0.045	0.725 ± 0.045
x1 = 0.001261, x2 = 5.399e-05	0.435 ± 0.044	0.546 ± 0.055	0.716 ± 0.072	1.034 ± 0.045	0.895 ± 0.045	0.749 ± 0.045
x1 = 0.001262, x2 = 8.998e-05	0.582 ± 0.06	0.654 ± 0.066	0.763 ± 0.076	1.06 ± 0.045	0.917 ± 0.045	0.774 ± 0.045
x1 = 0.00153, x2 = 1.799e-05	0.472 ± 0.047	0.571 ± 0.058	0.735 ± 0.074	1.028 ± 0.045	0.884 ± 0.045	0.738 ± 0.045
x1 = 0.001531, x2 = 5.397e-05	0.511 ± 0.052	0.651 ± 0.066	0.852 ± 0.086	1.052 ± 0.045	0.913 ± 0.045	0.764 ± 0.045
x1 = 0.001532, x2 = 8.995e-05	0.702 ± 0.073	0.78 ± 0.079	0.902 ± 0.09	1.081 ± 0.045	0.938 ± 0.045	0.792 ± 0.045

CO + CCCC[n+]1ccc(C)cc1.F[B-](F)(F)F
Conditions	viscosity [mPa·s]
298.15 K, 101 kPa, x1 = 1	0.538 ± 0.059

CO/N=C(\C(=O)N[C@@H]1C(=O)N2C(C(=O)[O-])=C(CSc3nc(=O)c(=O)[n-]n3C)CS[C@H]12)c1csc(N)n1.[Na+].[Na+] + CCCC[n+]1ccc(C)cc1.[Br-] + O
viscosity [mPa·s], 100 kPa
Conditions	x1 = 0.0003495, x2 = 0	x1 = 0.0008732, x2 = 0	x1 = 0.001391, x2 = 0	x1 = 0.002502, x2 = 0	x1 = 0.00312, x2 = 0	x1 = 0.003888, x2 = 0	x1 = 0.004767, x2 = 0	x1 = 0.005484, x2 = 0
288.15 K	1.196 ± 0.049	1.273 ± 0.052	1.365 ± 0.056	1.604 ± 0.066	1.745 ± 0.072	1.964 ± 0.081	2.205 ± 0.091	2.45 ± 0.1
293.15 K	1.053 ± 0.043	1.12 ± 0.046	1.2 ± 0.049	1.399 ± 0.057	1.527 ± 0.063	1.701 ± 0.07	1.918 ± 0.079	2.122 ± 0.087
298.15 K	0.935 ± 0.038	0.994 ± 0.041	1.062 ± 0.044	1.231 ± 0.051	1.348 ± 0.055	1.495 ± 0.061	1.674 ± 0.069	1.858 ± 0.076
303.15 K	0.829 ± 0.034	0.885 ± 0.036	0.945 ± 0.039	1.1 ± 0.045	1.195 ± 0.049	1.323 ± 0.054	1.48 ± 0.061	1.638 ± 0.067
308.15 K	0.744 ± 0.031	0.794 ± 0.033	0.849 ± 0.035	0.982 ± 0.04	1.07 ± 0.044	1.184 ± 0.049	1.322 ± 0.054	1.455 ± 0.06
